In this series the test system is HPRT1 exons 2 and 3, HD primary fibroblast cell line GM09197. Kind of series: HPRT1 sequence analysis by SMRT-CCS sequencing (general mutagen test). In kind it is cell-based, human. An excerpt:
Towards assessing whether NA-treatment acted as a general mutagen to sequences other than CAG slip-outs, the high read accuracy and depth of single molecule, real time, circular consensus sequencing (SMRT-CCS) was harnessed. Single-molecule sequencing was done on the HPRT1 gene—widely used as a surrogate indicator of the global effect of induced genetic variation. Single-molecule sequencing can detect mutations at frequencies below 0.5% with no false positives. Panel A of FIG. 13 is a schematic of HPRT1 sequencing for mutation detection. Briefly, cells were grown under identical conditions differing only by the addition of NA (50 μM) or saline, DNAs were isolated, HPRT1 exons 2 and 3 PCR amplified and sequenced. Panel B of FIG. 13 are graphs showing the comparison of sequence variations between NA-treated and saline-treated samples. We chose to compare the single-molecule sequence reads of individual X chromosome-linked HPRT1 alleles (exons 2 and 3, 2,897 nucleotides) from the HD patient-derived cells that had been NA- or saline-treated. In this manner, each read would represent a single cell. Graphs show the distribution of sequence variants by relative mutation rate between three experimental replicates of NA-treated and saline-treated cells sequenced with PacBio single-molecule long reads.
DNAs were extracted from three independent NA treatments of the HD primary fibroblast cell line GM09197 and from three independent untreated control cells. HPRT1 exons 2 and 3 were amplified using the high fidelity Platinum Taq DNA Polymerase (Invitrogen, Cat #11304) and the primers shown in Table 1. Amplification products were analyzed using single molecule, real-time (SMRT) sequencing on the PacBio RSII instrument (see FIG. 13A).
Specifically, a ˜2.8 kb PCR product spanning exons two and three of HPRT1 was sequenced for three replicates of HD patient-derived cells in both NA- and saline-treated colonies on a Pacific Biosciences (PacBio) RSII with P6-C4v2 chemistry, 360 minute movies, and one SMRT cell per replicate/treatment combination. Individual molecules from the original cell colony were represented by single long reads from the corresponding SMRT cell. PacBio's SMRTbell construct allows a single molecule to be sequenced one or more times in a single long read based on the number of “passes” the sequencing polymerase makes around the SMRTbell insert. An average of 99,023 distinct reads were sequenced per SMRT cell. The resulting long reads contained an average of ˜7 passes through the insert sequence. The average median insert length per SMRT cell was 2,873 bp. […] Based on these filters, an average of 1,343 consensus sequences per replicate/treatment pair were produced with a range of up to 2,402 sequences. […] To estimate the mutation rate for each replicate/treatment combination, the number of times a specific variant occurred was calculated between high-quality PacBio consensus reads at a specific position in the human reference (GRCh38) divided by the total number of high-quality reads aligned across each position. For each replicate, the relative mutation rate was calculated between NA- and saline-treated cells as the mutation rate for NA-treated cells minus the rate for saline-treated cells and identified excess mutation rates based on an absolute relative rate >0.5%. […]

In the case of naphthyridine-azaquinolone, the “distinct sites with extreme relative mutation rates, number” value (50 μM NA, across 2,897 positions, control 84) is reported as 113. Further, the “distinct sites with extreme relative mutation rates, percent” value (50 μM NA, control 2.9%) came to 3.9%. Also, the “variants with extreme mutation rates (absolute relative rate >0.5%), number” value (50 μM NA, of the 15,277 variants across three replicates, saline 101) is 149. The “variants with extreme mutation rates, percent” value (50 μM NA, saline 0.7%) was 1.0%. Further, the “mutation rates NA- versus saline-treated” value (p=0.1083, two-sample Kolmogorov-Smirnov test) is given as “not significantly different”.
